Test [1] concerns the target PI3-kinase p110-alpha/p85-alpha (Homo sapiens, UniProt P42336). Kind of test: Inhibition of human PI3K p110alpha/p85alpha. The note with it: read-out: Ki(app). It is filed as protein-complex assay.
Another test has as its target PI3K p110 beta/p85 alpha (Homo sapiens, UniProt P42338). Description: Inhibition of human PI3K p110beta/p85alpha. The note with it: read-out: Ki(app). It is filed as protein-complex assay.
Test [2] has as its target PI3-kinase p110-delta/p85-alpha (Homo sapiens, UniProt O00329). Kind of test: Inhibition of human PI3K p110delta/p85alpha. It is filed as protein-complex assay. The conditions noted are these: read-out: Ki(app).
The target in test [3] is Phosphatidylinositol 4,5-bisphosphate 3-kinase catalytic subunit gamma isoform (Homo sapiens, UniProt P48736). Description: Inhibition of human PI3K p110gamma. The note with it: read-out: Ki(app).
For a further test, the species on record is Homo sapiens. Kind of test: Selectivity ratio of Kiapp for human PI3K p110alpha/p85alpha to Kiapp for human PI3K p110delta/p85alpha.
Test [4] has as its target RAC-alpha serine/threonine-protein kinase (Homo sapiens) (UniProt P31749). Kind of test: Inhibition of AKT1 at 5 to 10 uM.
The target in test [5] is Casein kinase I isoform alpha (Homo sapiens) (UniProt P48729). Kind of test: Inhibition of CK1alpha1 at 5 to 10 uM.
Test [6] addresses Dual specificity tyrosine-phosphorylation-regulated kinase 1A (Homo sapiens) (UniProt Q13627). Description: Inhibition of DYRK1A at 5 to 10 uM.
For test [7], the target named is Epidermal growth factor receptor (Homo sapiens) (UniProt P00533). Kind of test: Inhibition of EGF-R at 5 to 10 uM.
The target of test [8] is Fibroblast growth factor receptor 1 (Homo sapiens) (UniProt P11362). Description: Inhibition of FGF-R1 at 5 to 10 uM.
Test [9] concerns the target Receptor-type tyrosine-protein kinase FLT3 (Homo sapiens) (UniProt P36888). Description: Inhibition of FLT3 at 5 to 10 uM.
In test [10] the target is Insulin-like growth factor 1 receptor (Homo sapiens) (UniProt P08069). Kind of test: Inhibition of IGF1-R at 5 to 10 uM.
For test [11], the target named is T1, Inhibitor of nuclear factor kappa-B kinase subunit beta (Homo sapiens) (UniProt O14920).
T1 sequence (whole entry): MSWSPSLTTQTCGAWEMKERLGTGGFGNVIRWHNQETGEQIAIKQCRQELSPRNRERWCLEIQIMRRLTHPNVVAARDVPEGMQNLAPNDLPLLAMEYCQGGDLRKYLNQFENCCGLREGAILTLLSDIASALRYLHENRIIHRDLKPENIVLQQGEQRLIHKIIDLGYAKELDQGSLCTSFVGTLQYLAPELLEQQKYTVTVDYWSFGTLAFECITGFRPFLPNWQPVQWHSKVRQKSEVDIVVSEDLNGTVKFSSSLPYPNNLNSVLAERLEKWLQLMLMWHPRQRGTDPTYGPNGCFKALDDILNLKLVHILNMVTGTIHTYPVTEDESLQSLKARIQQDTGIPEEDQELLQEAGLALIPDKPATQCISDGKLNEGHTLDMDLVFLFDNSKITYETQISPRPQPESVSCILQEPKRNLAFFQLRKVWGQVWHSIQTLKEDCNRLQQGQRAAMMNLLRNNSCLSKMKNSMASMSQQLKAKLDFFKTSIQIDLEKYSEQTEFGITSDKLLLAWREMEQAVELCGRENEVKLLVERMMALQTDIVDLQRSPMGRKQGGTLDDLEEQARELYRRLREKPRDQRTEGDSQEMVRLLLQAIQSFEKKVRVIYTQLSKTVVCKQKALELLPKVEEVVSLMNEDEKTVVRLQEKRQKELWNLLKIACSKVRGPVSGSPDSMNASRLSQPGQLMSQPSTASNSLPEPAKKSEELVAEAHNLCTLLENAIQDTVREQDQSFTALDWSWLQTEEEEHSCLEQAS
Kind of test: Inhibition of IKK-beta at 5 to 10 uM.

Test [12] addresses Insulin receptor (Homo sapiens) (UniProt P06213). Description: Inhibition of INS-R at 5 to 10 uM.
The target of test [13] is Mast/stem cell growth factor receptor Kit (Homo sapiens) (UniProt P10721). Description: Inhibition of KIT at 5 to 10 uM.
The target of test [14] is Dual specificity mitogen-activated protein kinase kinase 1 (Homo sapiens) (UniProt Q02750). Description: Inhibition of MEK1 at 5 to 10 uM.
Test [15] has as its target T2, Serine/threonine-protein kinase 4 (Homo sapiens) (UniProt Q13043).
T2 sequence (whole entry): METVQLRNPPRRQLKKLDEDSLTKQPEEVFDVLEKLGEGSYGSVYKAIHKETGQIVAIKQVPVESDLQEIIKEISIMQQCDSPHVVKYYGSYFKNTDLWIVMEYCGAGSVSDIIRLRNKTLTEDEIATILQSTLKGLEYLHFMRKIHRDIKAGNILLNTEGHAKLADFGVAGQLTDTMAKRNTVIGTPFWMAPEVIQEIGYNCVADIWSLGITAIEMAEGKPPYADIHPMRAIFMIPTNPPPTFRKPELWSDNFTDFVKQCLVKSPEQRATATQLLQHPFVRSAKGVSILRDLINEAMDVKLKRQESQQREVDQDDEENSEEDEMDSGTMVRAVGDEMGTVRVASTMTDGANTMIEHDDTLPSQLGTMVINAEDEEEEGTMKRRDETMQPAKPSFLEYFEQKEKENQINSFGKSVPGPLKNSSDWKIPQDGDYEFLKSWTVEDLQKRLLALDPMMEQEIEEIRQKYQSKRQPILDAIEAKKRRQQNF
Description: Inhibition of MST1 at 5 to 10 uM.

The target in test [16] is Serine/threonine-protein kinase PAK 1 (Homo sapiens) (UniProt Q13153). Kind of test: Inhibition of PAK1 at 5 to 10 uM.
The nature of test [17]: Inhibition of PDGFR at 5 to 10 uM.
For test [18], the target named is Serine/threonine-protein kinase pim-1 (Homo sapiens) (UniProt P11309). Description: Inhibition of PIM1 at 5 to 10 uM.
Test [19] concerns the target Serine/threonine-protein kinase pim-2 (Homo sapiens) (UniProt Q9P1W9). Kind of test: Inhibition of PIM2 at 5 to 10 uM.
The target in test [20] is T3, Serine/threonine-protein kinase Sgk1 (Homo sapiens) (UniProt O00141).
T3 sequence (whole entry): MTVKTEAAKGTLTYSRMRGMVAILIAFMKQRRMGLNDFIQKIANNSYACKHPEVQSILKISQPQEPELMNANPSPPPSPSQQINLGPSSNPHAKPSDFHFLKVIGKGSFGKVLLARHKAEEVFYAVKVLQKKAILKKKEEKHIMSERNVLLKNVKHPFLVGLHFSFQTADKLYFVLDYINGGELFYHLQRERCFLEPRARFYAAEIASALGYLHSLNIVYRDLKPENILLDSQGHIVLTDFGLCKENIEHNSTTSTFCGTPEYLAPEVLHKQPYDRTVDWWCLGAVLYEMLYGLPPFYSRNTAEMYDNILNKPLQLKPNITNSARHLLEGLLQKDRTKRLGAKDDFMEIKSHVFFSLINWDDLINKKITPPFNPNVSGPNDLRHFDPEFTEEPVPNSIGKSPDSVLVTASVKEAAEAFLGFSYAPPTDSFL
Description: Inhibition of SGK1 at 5 to 10 uM.

Chain of Casein kinase I isoform alpha (Homo sapiens) (P48729 2-337 limits assumed): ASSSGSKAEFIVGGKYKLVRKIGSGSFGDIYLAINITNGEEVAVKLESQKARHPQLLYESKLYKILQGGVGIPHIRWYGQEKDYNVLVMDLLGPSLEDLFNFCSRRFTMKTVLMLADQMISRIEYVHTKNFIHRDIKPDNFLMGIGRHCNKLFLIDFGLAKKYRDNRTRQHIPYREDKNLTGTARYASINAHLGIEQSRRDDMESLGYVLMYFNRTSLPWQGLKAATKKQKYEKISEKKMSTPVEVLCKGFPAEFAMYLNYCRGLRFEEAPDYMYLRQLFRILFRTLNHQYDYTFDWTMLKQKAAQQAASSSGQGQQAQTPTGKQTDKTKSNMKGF
Chain of Receptor-type tyrosine-protein kinase FLT3 (Homo sapiens) (P36888 whole entry): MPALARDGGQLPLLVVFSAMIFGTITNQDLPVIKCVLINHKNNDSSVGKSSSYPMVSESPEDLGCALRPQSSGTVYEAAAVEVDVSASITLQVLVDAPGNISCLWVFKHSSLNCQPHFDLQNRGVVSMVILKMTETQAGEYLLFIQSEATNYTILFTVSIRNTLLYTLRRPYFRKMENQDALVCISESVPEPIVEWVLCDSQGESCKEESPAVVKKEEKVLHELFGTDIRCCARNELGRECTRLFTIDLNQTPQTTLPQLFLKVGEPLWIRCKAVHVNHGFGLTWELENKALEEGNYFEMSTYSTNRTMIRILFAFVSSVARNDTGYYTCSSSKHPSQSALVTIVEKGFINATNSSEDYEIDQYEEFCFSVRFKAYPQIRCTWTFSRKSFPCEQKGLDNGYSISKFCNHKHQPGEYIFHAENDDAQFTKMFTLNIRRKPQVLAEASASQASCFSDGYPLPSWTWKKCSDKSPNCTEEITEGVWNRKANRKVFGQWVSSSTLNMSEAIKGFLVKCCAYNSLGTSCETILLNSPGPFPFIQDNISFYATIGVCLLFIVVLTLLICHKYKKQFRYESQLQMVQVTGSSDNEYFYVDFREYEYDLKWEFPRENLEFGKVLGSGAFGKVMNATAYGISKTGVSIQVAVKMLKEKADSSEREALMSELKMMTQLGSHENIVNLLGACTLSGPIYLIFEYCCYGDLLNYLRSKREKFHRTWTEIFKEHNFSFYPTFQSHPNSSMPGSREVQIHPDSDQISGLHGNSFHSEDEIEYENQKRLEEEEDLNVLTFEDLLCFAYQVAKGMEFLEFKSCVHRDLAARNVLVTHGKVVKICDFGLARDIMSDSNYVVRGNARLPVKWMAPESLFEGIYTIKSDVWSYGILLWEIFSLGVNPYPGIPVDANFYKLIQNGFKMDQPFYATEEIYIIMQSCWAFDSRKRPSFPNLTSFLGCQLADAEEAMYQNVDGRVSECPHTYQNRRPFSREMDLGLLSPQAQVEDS
Chain of Serine/threonine-protein kinase pim-1 (Homo sapiens) (P11309 whole entry, looked up): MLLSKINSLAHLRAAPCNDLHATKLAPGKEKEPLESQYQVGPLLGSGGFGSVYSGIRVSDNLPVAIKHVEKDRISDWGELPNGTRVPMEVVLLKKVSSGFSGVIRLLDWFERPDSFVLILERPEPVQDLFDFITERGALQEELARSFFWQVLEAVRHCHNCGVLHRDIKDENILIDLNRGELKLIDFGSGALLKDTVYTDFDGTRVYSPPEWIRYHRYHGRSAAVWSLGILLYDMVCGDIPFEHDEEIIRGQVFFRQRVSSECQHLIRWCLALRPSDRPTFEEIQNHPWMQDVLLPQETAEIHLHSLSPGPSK
Chain of Phosphatidylinositol 4,5-bisphosphate 3-kinase catalytic subunit gamma isoform (P48736 whole entry, canonical isoform): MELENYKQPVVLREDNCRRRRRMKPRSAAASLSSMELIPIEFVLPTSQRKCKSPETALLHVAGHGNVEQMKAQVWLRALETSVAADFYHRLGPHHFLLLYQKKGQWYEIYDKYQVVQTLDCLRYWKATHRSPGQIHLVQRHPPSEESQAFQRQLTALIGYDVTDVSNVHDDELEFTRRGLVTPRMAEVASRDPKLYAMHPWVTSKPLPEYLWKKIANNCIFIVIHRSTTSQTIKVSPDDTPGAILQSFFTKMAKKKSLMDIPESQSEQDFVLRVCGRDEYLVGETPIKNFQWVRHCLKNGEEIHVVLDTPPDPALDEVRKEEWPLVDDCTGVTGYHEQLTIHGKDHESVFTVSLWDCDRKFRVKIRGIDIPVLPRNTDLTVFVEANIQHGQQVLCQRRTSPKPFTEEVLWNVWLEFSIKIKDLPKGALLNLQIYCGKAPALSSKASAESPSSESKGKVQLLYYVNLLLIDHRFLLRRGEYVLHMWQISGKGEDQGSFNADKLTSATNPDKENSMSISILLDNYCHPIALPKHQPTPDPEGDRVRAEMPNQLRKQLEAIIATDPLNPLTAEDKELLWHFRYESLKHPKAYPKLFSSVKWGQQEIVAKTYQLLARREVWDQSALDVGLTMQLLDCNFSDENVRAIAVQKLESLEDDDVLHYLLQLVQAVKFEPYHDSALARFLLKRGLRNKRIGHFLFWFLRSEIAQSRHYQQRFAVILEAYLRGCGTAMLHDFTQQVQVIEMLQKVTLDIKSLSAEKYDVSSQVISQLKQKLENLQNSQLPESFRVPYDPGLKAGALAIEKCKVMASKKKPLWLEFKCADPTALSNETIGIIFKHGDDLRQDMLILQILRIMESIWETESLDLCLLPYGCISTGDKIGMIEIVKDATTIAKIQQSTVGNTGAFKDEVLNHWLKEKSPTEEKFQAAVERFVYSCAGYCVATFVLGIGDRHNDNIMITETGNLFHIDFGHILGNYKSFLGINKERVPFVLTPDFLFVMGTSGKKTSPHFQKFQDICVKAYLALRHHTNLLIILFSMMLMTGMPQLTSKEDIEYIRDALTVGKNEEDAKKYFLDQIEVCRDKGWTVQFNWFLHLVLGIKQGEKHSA
Chain of Serine/threonine-protein kinase pim-2 (Homo sapiens) (Q9P1W9 whole entry, looked up): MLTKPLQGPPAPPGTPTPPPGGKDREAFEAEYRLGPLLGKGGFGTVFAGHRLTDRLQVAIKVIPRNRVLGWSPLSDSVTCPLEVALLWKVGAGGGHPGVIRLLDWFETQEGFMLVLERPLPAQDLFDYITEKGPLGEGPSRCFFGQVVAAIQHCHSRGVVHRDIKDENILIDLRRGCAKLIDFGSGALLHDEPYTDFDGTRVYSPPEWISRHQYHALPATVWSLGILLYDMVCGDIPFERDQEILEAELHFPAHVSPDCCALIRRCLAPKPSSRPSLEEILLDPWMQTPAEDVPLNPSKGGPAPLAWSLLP
Chain of PI3-kinase p110-delta/p85-alpha (P27986 whole entry, canonical isoform): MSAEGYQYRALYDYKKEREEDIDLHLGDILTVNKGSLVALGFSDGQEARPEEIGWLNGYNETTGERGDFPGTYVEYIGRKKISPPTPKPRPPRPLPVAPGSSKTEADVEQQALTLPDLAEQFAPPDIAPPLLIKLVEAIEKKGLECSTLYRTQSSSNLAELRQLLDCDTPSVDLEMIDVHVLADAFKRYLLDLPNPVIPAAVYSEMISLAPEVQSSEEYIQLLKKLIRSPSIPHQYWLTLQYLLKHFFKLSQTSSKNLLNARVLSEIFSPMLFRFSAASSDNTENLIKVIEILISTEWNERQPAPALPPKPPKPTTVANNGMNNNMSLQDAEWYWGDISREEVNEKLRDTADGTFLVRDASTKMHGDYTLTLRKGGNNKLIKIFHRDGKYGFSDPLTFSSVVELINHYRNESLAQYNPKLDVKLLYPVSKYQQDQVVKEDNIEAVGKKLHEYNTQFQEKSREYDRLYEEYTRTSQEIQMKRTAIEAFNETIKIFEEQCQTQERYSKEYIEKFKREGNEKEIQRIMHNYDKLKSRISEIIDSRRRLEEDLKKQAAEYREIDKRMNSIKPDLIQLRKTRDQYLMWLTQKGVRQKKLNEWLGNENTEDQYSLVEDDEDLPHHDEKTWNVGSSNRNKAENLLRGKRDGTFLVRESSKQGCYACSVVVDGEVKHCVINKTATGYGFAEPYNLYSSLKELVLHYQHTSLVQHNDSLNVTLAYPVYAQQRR
Chain of PI3-kinase p110-delta/p85-alpha (O00329 whole entry, canonical isoform): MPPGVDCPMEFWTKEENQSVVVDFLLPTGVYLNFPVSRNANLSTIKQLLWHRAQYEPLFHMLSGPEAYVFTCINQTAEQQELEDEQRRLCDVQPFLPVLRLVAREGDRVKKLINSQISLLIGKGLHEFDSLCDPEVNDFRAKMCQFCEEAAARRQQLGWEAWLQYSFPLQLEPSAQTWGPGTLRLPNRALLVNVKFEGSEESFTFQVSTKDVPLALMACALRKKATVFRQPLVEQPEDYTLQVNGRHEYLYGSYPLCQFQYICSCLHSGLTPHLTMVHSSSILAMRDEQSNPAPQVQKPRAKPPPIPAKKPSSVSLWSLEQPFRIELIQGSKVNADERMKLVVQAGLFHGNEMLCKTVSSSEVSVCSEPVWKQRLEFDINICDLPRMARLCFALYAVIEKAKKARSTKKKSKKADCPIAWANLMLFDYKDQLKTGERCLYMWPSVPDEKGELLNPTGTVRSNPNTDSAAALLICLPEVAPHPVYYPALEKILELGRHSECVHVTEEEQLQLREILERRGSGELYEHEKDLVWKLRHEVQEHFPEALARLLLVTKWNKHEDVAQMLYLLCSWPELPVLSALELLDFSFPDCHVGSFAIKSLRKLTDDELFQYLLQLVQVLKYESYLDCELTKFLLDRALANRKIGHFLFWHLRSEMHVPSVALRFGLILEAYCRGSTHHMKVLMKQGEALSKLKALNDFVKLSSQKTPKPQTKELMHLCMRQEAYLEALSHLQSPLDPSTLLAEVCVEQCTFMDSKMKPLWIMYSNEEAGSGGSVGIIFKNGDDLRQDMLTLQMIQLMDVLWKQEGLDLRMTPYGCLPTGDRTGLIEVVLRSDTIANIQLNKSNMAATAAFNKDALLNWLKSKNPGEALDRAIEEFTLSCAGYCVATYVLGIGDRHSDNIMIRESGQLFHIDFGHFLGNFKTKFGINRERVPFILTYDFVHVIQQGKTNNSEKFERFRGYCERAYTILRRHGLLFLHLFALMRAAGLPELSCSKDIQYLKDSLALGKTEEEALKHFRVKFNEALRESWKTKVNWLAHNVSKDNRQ

As a reminder, the inhibition is the share of the control response that was lost under treatment. Take `CNC(=O)c1cn2cc(-c3cccc4[nH]ncc34)nc(N3CCOCC3)c2n1`: the Ki in [1] was 102 nM; on PI3K p110 beta/p85 alpha it was greater than 500 nM; in test [2], 17.1 nM; in test [3], greater than 500 nM. The Ratio Ki(app) in the test listed under Homo sapiens was 6. The inhibition is 50% in test [4]; less than 50% in [5]; less than 50% in test [6]; less than 50% in test [7]; less than 50% in [8]; less than 50% in [9]. The inhibition in [10] is less than 50%; in test [11], less than 50%; in test [12], 50%; in test [13] it was less than 50%; in test [14] it was less than 50%; in [15] it was less than 50%. Also, the inhibition in test [16], in test [17], in test [18], in [19] and in test [20] was less than 50% throughout.

On to `CN(C)CCCNC(=O)c1cn2cc(-c3cccc4[nH]ncc34)nc(N3CCOCC3)c2n1`, for which the Ki was 44 nM in test [1], greater than 500 nM at PI3K p110 beta/p85 alpha, 3.6 nM in test [2] and greater than 500 nM in [3]. In addition, the Ratio Ki(app) in the test filed under Homo sapiens amounted to 12.2. Further, the inhibition was 50% in [4]; less than 50% in test [5]; less than 50% in test [6]; less than 50% in [7]; less than 50% in test [8]; less than 50% in test [9]. The inhibition is less than 50% in test [10]; less than 50% in [11]; 50% in test [12]; less than 50% in [13]; less than 50% in test [14]; less than 50% in test [15]. Besides, the inhibition in test [16], in test [17], in test [18], in test [19] and in [20] was less than 50% throughout.

As for `COCCCNC(=O)c1cn2cc(-c3cccc4[nH]ncc34)nc(N3CCOCC3)c2n1`, the Ki in test [1] is 60 nM; at PI3K p110 beta/p85 alpha, greater than 500 nM; in test [2], 2.8 nM; in test [3], greater than 500 nM. The Ratio Ki(app) in the test filed under Homo sapiens is 21.4. In addition, the inhibition in test [4] is 50%; in test [5], less than 50%; in test [6], less than 50%; in test [7] it was less than 50%; in test [8] it was less than 50%; in [9], less than 50%. Besides, the inhibition is less than 50% in [10]; less than 50% in [11]; 50% in test [12]; less than 50% in [13]; less than 50% in test [14]; less than 50% in test [15]. In addition, the inhibition in test [16], in test [17], in [18], in test [19] and in test [20] was less than 50% in each case.

For `CS(=O)(=O)N1CCN(Cc2cn3c(C#N)c(-c4cccc5[nH]ncc45)nc(N4CCOCC4)c3n2)CC1`, the Ki in test [1] was 410 nM; on PI3K p110 beta/p85 alpha it was greater than 500 nM; in test [2], 43 nM; in test [3] it was greater than 500 nM. For the same molecule, the Ratio Ki(app) in the test listed under Homo sapiens was determined as 9.5. The inhibition was 50% in test [4]; less than 50% in [5]; less than 50% in [6]; less than 50% in [7]; less than 50% in test [8]; less than 50% in test [9]. In addition, the inhibition in test [10] is less than 50%; in test [11], less than 50%; in test [12], 50%; in test [13] it was less than 50%; in test [14] it was less than 50%; in test [15], less than 50%. In addition, the inhibition in test [16], in test [17], in test [18], in [19] and in test [20] was less than 50% in each case.

Turning to `CS(=O)(=O)N1CCN(Cc2nc3c(N4CCOCC4)nc(-c4cccc5[nH]ncc45)cn3c2Br)CC1`, the Ki is 86 nM in test [1], greater than 500 nM at PI3K p110 beta/p85 alpha, 8 nM in test [2] and greater than 500 nM in [3]. Further, the Ratio Ki(app) in the test listed under Homo sapiens came to 10.8. In addition, the inhibition is 50% in test [4]; less than 50% in test [5]; less than 50% in [6]; less than 50% in test [7]; less than 50% in test [8]; less than 50% in test [9]. The inhibition in test [10] is less than 50%; in [11] it was less than 50%; in test [12] it was 50%; in test [13], less than 50%; in test [14], less than 50%; in test [15], less than 50%. The inhibition in [16], in test [17], in test [18], in [19] and in [20] was less than 50% each time.

In the case of `CS(=O)(=O)N1CCN(Cc2cn3cc(-c4cccc5[nH]ncc45)nc(N4CCOCC4)c3n2)CC1`, the Ki (on PI3K p110 beta/p85 alpha; in [3]) was greater than 500 nM each time. In addition, the inhibition in test [4], in test [5], in test [6], in test [7], in test [8] and in test [9] was less than 50% each time. Besides, the inhibition is less than 50% in test [10]; less than 50% in test [11]; 50% in test [12]; less than 50% in [13]; less than 50% in test [14]; less than 50% in test [15]. For the same molecule, the inhibition in test [16], in [17], in test [18], in [19] and in test [20] was less than 50% throughout.

(Values after ChEMBL document CHEMBL1955823, “Imidazo[1,2-a]pyrazines as novel PI3K inhibitors” (Bioorg Med Chem Lett, 2012).)
